Data published in patent US11612606B2, “8-aminoisoquinoline compounds and uses thereof” (priority 2018, dated 2023).
Counter-ions that a name gives are not always drawn.

Molecular target: HPK full length, T165E S171E (Homo sapiens (Human), UniProt Q92918, S171E/T165E)
Assay: HPK1-FL HTRF enzymatic assay ("HTRF")
Type: biochemical
Details: ATP 1 mM, read-out: HPK1 Ki
Procedure, shortened: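 Full-length HPK1 (T165E/S171E) was preincubated 30 min with compound, then reacted 60 min with biotin-SLP-76 and 1 mM ATP. Phospho-SLP-76 was detected by HTRF (Eu-anti-pSLP76 antibody, SA-XL665) after a further 60 min.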

Chain of HPK full length, T165E S171E (Q92918 whole entry T165E/S171E, looked up): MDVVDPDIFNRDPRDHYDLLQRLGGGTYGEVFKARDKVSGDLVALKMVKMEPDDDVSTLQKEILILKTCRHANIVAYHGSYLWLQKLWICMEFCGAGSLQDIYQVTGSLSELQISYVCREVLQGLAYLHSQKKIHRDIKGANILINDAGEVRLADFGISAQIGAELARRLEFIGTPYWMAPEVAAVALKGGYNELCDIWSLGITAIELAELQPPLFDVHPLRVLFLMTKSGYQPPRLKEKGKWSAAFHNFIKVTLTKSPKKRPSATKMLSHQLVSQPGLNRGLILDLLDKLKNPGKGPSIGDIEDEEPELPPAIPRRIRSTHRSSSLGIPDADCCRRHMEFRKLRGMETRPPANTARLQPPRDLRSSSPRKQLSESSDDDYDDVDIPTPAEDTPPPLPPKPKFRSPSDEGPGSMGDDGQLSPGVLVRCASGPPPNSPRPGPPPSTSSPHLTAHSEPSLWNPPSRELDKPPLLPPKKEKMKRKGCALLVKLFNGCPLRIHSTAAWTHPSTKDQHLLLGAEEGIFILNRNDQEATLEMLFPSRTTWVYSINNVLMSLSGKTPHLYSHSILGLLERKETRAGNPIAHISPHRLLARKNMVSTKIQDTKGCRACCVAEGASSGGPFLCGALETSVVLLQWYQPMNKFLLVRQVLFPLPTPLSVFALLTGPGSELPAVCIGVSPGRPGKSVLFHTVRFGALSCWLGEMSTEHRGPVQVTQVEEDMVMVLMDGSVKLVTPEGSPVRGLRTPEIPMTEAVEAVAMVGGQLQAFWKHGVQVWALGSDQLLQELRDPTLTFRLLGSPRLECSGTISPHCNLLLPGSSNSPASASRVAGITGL

Row | Structure (SMILES) | Ki [nM]
1 | Cc1c(-c2cc3cc(NC(=O)O[C@H]4C[C@@H](C(=O)N5CCC5)C4)ncc3c(N)c2F)cnc2c1NCCO2 [Compound 517a, (1s,3s)-3-(Azetidine-1-carbonyl)cyclobutyl (8-amino-7-fluoro-6-(8-methyl-2,3-dihydro-1H-pyrido[2,3-b][1,4]oxazin-7-yl)isoquinolin-3-yl)carbamate] | < 0.013
2 | Cc1c(-c2cc3cc(NC(=O)O[C@H]4C[C@@H](C(=O)N(C)C)C4)ncc3c(N)c2F)cnc2c1NCCO2 [Compound 519a, (1s,3s)-3-(Dimethylcarbamoyl)cyclobutyl (8-amino-7-fluoro-6-(8-methyl-2,3-dihydro-1H-pyrido[2,3-b][1,4]oxazin-7-yl)isoquinolin-3-yl)carbamate] | < 0.013
3 | CNC(=O)[C@H]1C[C@@H](OC(=O)Nc2cc3cc(-c4cnc5c(c4C)NCCO5)c(F)c(N)c3cn2)C1 [Compound 520a, (1s,3s)-3-(Methylcarbamoyl)cyclobutyl (8-amino-7-fluoro-6-(8-methyl-2,3-dihydro-1H-pyrido[2,3-b][1,4]oxazin-7-yl)isoquinolin-3-yl)carbamate hydrochloride] | < 0.013
4 | Cc1c(-c2cc3cc(NC(=O)OC4CN(CCF)C4)ncc3c(N)c2F)cnc2c1NCCO2 [Compound 521, 1-(2-Fluoroethyl)azetidin-3-yl (8-amino-7-fluoro-6-(8-methyl-2,3-dihydro-1H-pyrido[2,3-b][1,4]oxazin-7-yl)isoquinolin-3-yl)carbamate] | 0.11
5 | Cc1c(-c2cc3cc(NC(=O)O[C@H]4[C@@H]5CN(S(C)(=O)=O)C[C@@H]54)ncc3c(N)c2F)cnc2c1NCCO2 [Compound 522a, (1R,5S,6s)-3-(Methylsulfonyl)-3-azabicyclo[3.1.0]hexan-6-yl (8-amino-7-fluoro-6-(8-methyl-2,3-dihydro-1H-pyrido[2,3-b][1,4]oxazin-7-yl)isoquinolin-3-yl)carbamate] | < 0.013
6 | Cc1c(-c2cc3cc(NC(=O)OC4CN(S(=O)(=O)C5CC5)C4)ncc3c(N)c2F)cnc2c1NCCO2 [Compound 524, (1-Cyclopropylsulfonylazetidin-3-yl)-N-[8-amino-7-fluoro-6-(8-methyl-2,3-dihydro-1H-pyrido[2,3-b][1,4]oxazin-7-yl)-3-isoquinolyl]-carbamate hydrochloride] | 0.02
7 | Cc1c(-c2cc3cc(NC(=O)O[C@H]4C[C@@H](N5CC(F)C5)C4)ncc3c(N)c2F)cnc2c1NCCO2 [Compound 525a, (1s,3s)-3-(3-Fluoroazetidin-1-yl)cyclobutyl (8-amino-7-fluoro-6-(8-methyl-2,3-dihydro-1H-pyrido[2,3-b][1,4]oxazin-7-yl)isoquinolin-3-yl)carbamate] | < 0.013
8 | Cc1c(-c2cc3cc(NC(=O)O[C@@H]4C[C@](C)(O)[C@@H]4C)ncc3c(N)c2F)cnc2c1NCCO2 [Compound 526a, (1R,2R,3S)-3-Hydroxy-2,3-dimethylcyclobutyl (8-amino-7-fluoro-6-(8-methyl-2,3-dihydro-1H-pyrido[2,3-b][1,4]oxazin-7-yl)isoquinolin-3-yl)carbamate] | 0.015
9 | Cc1c(-c2cc3cc(NC(=O)O[C@@H]4C[C@@](C)(O)[C@H]4C)ncc3c(N)c2F)cnc2c1NCCO2 [Compound 526d, (1R,2S,3R)-3-Hydroxy-2,3-dimethylcyclobutyl (8-amino-7-fluoro-6-(8-methyl-2,3-dihydro-1H-pyrido[2,3-b][1,4]oxazin-7-yl)isoquinolin-3-yl)carbamate] | 0.018
10 | CNc1cncc(-c2cc3cc(NC(=O)O[C@H]4C[C@](C)(O)C4)ncc3c(N)c2F)c1C [Compound 527a, (1r,3r)-3-Hydroxy-3-methylcyclobutyl (8-amino-7-fluoro-6-(4-methyl-5-(methylamino)pyridin-3-yl)isoquinolin-3-yl)carbamate] | 0.538
11 | CNc1cncc(-c2cc3cc(NC(=O)O[C@H]4C[C@@](C)(O)C4)ncc3c(N)c2F)c1C [Compound 527b, (1s,3s)-3-Hydroxy-3-methylcyclobutyl (8-amino-7-fluoro-6-(4-methyl-5-(methylamino)pyridin-3-yl)isoquinolin-3-yl)carbamate] | 0.216
